Test results taken from patent US20240116985A1, “STAPLED PEPTIDES AND METHODS THEREOF” (priority 2020, published 2024).
≈ marks a conversion by molar mass, not a printed value. Read-outs that look alike come from different tables or passages of the source.

Assays:
[1] = biological target: T1, full-length beta-Catenin (Uniprot ID P35222) (Homo sapiens, UniProt P35222); assay: Fluorescence polarization IC50 (beta-catenin / 5FAM-TCF4 10-53 competition); type: binding; conditions: read-out: beta-Catenin FP IC50
T1 construct: 10 nM full-length beta-Catenin (Uniprot ID P35222)
T1 sequence (P35222 1-781): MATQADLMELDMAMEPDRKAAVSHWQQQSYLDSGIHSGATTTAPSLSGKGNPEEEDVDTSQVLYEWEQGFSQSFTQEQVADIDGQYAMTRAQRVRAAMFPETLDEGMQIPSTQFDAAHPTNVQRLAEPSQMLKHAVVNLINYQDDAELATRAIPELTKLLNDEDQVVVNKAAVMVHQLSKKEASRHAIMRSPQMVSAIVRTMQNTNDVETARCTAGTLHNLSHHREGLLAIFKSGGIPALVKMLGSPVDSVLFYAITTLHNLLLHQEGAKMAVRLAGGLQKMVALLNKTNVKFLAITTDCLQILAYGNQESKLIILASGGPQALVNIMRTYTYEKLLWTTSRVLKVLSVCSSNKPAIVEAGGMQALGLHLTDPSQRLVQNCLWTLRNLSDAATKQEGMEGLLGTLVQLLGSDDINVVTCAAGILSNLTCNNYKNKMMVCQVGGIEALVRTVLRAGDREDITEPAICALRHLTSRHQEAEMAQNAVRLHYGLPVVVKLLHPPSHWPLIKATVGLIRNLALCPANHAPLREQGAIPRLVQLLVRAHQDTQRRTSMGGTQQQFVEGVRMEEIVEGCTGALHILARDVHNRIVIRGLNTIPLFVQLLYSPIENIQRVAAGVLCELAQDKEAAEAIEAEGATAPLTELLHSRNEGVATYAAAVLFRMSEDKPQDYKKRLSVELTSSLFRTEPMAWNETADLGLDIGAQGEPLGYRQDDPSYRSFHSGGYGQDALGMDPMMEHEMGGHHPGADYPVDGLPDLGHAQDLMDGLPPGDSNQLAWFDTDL

[2] = Solubility in PBS; type: physicochemical
Method in brief: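 HPLC quantitation of peptide remaining in the PBS supernatant after ultracentrifugation, referenced to a 50 μM solution in DMSO.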

[3] = biological target: T2, beta-catenin/TCF4 engagement (Homo sapiens, UniProt P35222); assay: Nano-BRET target engagement assay (B-cat-Halo & TCF4-Luc in HEK293 cells); type: cell-based
T2 construct: expressed in transfected cells; host or cells: HEK293
T2 sequence (P35222 1-781): T1 sequence (P35222 1-781)

[4] = CHI Log D procedure; type: physicochemical

CC(=O)N1CCC[C@]12CC=CCCCC1(CCCC=CCCCOC(=O)N3CC[C@@](C(=O)N[C@@H](Cc4ccsc4)C(=O)N[C@@H](Cc4csc5ccccc45)C(=O)N[C@@H](CCC(N)=O)C(N)=O)(C3)NC(=O)[C@H](CC(N)=O)NC(=O)[C@H](Cc3ccccc3)NC(=O)[C@H](CCCCNC(=O)C34CC5CC(CC(C5)C3)C4)NC(=O)[C@H](C)NC(=O)[C@H](CC(=O)O)NC(=O)[C@H](CC(=O)O)NC1=O)NC(=O)[C@H](CC(C)(C)C)NC(=O)[C@H](CC(=O)O)NC2=O (stereo partly drawn) [I-899, Ac-PL3-Asp-Npg-B5-Asp-Asp-Ala-[AdamantC]Lys-Phe-Asn-PyrS2-3Thi-BztA-Gln-NH2]
IC50 [1]: 28 nM
Solubility ([2]; Solubility (uM)): 40 µM (≈ 85.5 µg/mL)
IC50 ([3]; read-out: NanoBRET Abs IC50): > 20000 nM
chromatographic logD ([4]; pH 7.4, CHI Log D): 2.26

CC(=O)N1CCC[C@]12CC=CCCCC1(CCCC=CCCCOC(=O)N3CC[C@@](C(=O)N[C@@H](Cc4ccsc4)C(=O)N[C@@H](Cc4csc5ccccc45)C(=O)N[C@@H](CCC(N)=O)C(N)=O)(C3)NC(=O)[C@H](CC(N)=O)NC(=O)[C@H](Cc3ccccc3)NC(=O)[C@H](CCCCNC(=O)C34CC5(C)CC(C)(CC(C)(C5)C3)C4)NC(=O)[C@H](C)NC(=O)[C@H](CC(=O)O)NC(=O)[C@H](CC(=O)O)NC1=O)NC(=O)[C@H](CC(C)(C)C)NC(=O)[C@H](CC(=O)O)NC2=O (stereo partly drawn) [I-900, Ac-PL3-Asp-Npg-B5-Asp-Asp-Ala-[Me3AdamantC]Lys-Phe-Asn-PyrS2-3Thi-BztA-Gln-NH2]
IC50 [1]: 33 nM
Solubility ([2]; Solubility (uM)): 41 µM (≈ 89.4 µg/mL)
IC50 ([3]; read-out: NanoBRET Abs IC50): > 20000 nM
chromatographic logD ([4]; pH 7.4, CHI Log D): 2.74

CC(=O)N1CCC[C@]12CC=CCCCC1(CCCC=CCCCOC(=O)N3CC[C@@](C(=O)N[C@@H](Cc4ccsc4)C(=O)N[C@@H](Cc4csc5ccccc45)C(=O)N[C@@H](CCC(N)=O)C(=O)N[C@@H](CCCCNC(=O)CCc4cccc5ccccc45)C(N)=O)(C3)NC(=O)[C@H](CC(N)=O)NC(=O)[C@H](Cc3ccccc3)NC(=O)[C@H](C)NC(=O)[C@H](C)NC(=O)[C@H](CC(=O)O)NC(=O)[C@H](CC(=O)O)NC1=O)NC(=O)[C@H](CC(C)(C)C)NC(=O)[C@H](CC(=O)O)NC2=O (stereo partly drawn) [I-903, Ac-PL3-Asp-Npg-B5-Asp-Asp-Ala-Ala-Phe-Asn-PyrS2-3Thi-BztA-Gln-[1NapPr]Lys-NH2]
IC50 [1]: 33 nM
Solubility ([2]; Solubility (uM)): 43 µM (≈ 95.8 µg/mL)
IC50 ([3]; read-out: NanoBRET Abs IC50): 7800 nM
chromatographic logD ([4]; pH 7.4, CHI Log D): 2.38

CC(=O)N1CCC[C@]12CC=CCCCC1(CCCC=CCCCOC(=O)N3CC[C@@](C(=O)N[C@@H](Cc4ccsc4)C(=O)N[C@@H](Cc4csc5ccccc45)C(=O)N[C@@H](CCC(N)=O)C(=O)N[C@@H](CCCCNC(=O)C(C)(c4ccccc4)c4ccccc4)C(N)=O)(C3)NC(=O)[C@H](CC(N)=O)NC(=O)[C@H](Cc3ccccc3)NC(=O)[C@H](C)NC(=O)[C@H](C)NC(=O)[C@H](CC(=O)O)NC(=O)[C@H](CC(=O)O)NC1=O)NC(=O)[C@H](CC(C)(C)C)NC(=O)[C@H](CC(=O)O)NC2=O (stereo partly drawn) [I-904, Ac-PL3-Asp-Npg-B5-Asp-Asp-Ala-Ala-Phe-Asn-PyrS2-3Thi-BztA-Gln-[22PhPr]Lys-NH2]
IC50 [1]: 54 nM
Solubility [2]: 30 µM (≈ 67.6 µg/mL)
IC50 ([3]; read-out: NanoBRET Abs IC50): 20000 nM
chromatographic logD ([4]; pH 7.4): 2.65

CC(=O)N1CCC[C@]12CC=CCCCC1(CCCC=CCCCOC(=O)N3CC[C@@](C(=O)N[C@@H](Cc4ccsc4)C(=O)N[C@@H](Cc4csc5ccccc45)C(=O)N[C@@H](CCC(N)=O)C(=O)N[C@@H](CCCCNC(=O)CN4CCN(C)CC4)C(N)=O)(C3)NC(=O)[C@H](CC(N)=O)NC(=O)[C@H](Cc3ccccc3)NC(=O)[C@H](C)NC(=O)[C@H](C)NC(=O)[C@H](CC(=O)O)NC(=O)[C@H](CC(=O)O)NC1=O)NC(=O)[C@H](CC(C)(C)C)NC(=O)[C@H](CC(=O)O)NC2=O (stereo partly drawn) [I-906, Ac-PL3-Asp-Npg-B5-Asp-Asp-Ala-Ala-Phe-Asn-PyrS2-3Thi-BztA-Gln-MePipAc Lys-NH2]
IC50 [1]: 8 nM
solubility at 15 min ([2]; Solubility (uM)): 46 µM (≈ 101 µg/mL)
IC50 ([3]; read-out: NanoBRET IC50): > 20000 nM
chromatographic logD ([4]; pH 7.4, CHI Log D): 1.75

CC(=O)N1CCC[C@]12CC=CCCCC1(CCCC=CCCCOC(=O)N3CC[C@@](C(=O)N[C@@H](Cc4ccsc4)C(=O)N[C@@H](Cc4csc5ccccc45)C(=O)N[C@@H](CCC(N)=O)C(=O)N[C@@H](CCCCNC(=O)C4CCN(C5CCN(C)CC5)CC4)C(N)=O)(C3)NC(=O)[C@H](CC(N)=O)NC(=O)[C@H](Cc3ccccc3)NC(=O)[C@H](C)NC(=O)[C@H](C)NC(=O)[C@H](CC(=O)O)NC(=O)[C@H](CC(=O)O)NC1=O)NC(=O)[C@H](CC(C)(C)C)NC(=O)[C@H](CC(=O)O)NC2=O (stereo partly drawn) [I-907, Ac-PL3-Asp-Npg-B5-Asp-Asp-Ala-Ala-Phe-Asn-PyrS2-3Thi-BztA-Gln-[MeBipipAc]Lys-NH2]
IC50 [1]: 9 nM
Solubility ([2]; Solubility (uM)): 20 µM (≈ 45.1 µg/mL)
IC50 ([3]; read-out: NanoBRET Abs IC50): 27800 nM
chromatographic logD ([4]; pH 7.4, CHI Log D): 1.8

CC(=O)N1CCC[C@]12CC=CCCCC1(CCCC=CCCCOC(=O)N3CC[C@@](C(=O)N[C@@H](Cc4ccsc4)C(=O)N[C@@H](Cc4csc5ccccc45)C(=O)N[C@@H](CCC(N)=O)C(=O)N[C@@H](CCCCNC(=O)c4ccc(CN5CCN(C)CC5)cc4)C(N)=O)(C3)NC(=O)[C@H](CC(N)=O)NC(=O)[C@H](Cc3ccccc3)NC(=O)[C@H](C)NC(=O)[C@H](C)NC(=O)[C@H](CC(=O)O)NC(=O)[C@H](CC(=O)O)NC1=O)NC(=O)[C@H](CC(C)(C)C)NC(=O)[C@H](CC(=O)O)NC2=O (stereo partly drawn) [I-908, Ac-PL3-Asp-Npg-B5-Asp-Asp-Ala-Ala-Phe-Asn-PyrS2-3Thi-BztA-Gln-[4MePipBz]Lys-NH2]
IC50 [1]: 10 nM
Solubility ([2]; Solubility (uM)): 44 µM (≈ 99.6 µg/mL)
IC50 ([3]; read-out: NanoBRET Abs IC50): 26000 nM
chromatographic logD ([4]; pH 7.4, CHI Log D): 1.82

CC(=O)N1CCC[C@]12CC=CCCCC1(CCCC=CCCCOC(=O)N3CC[C@@](C(=O)N[C@@H](Cc4ccsc4)C(=O)N[C@@H](Cc4csc5ccccc45)C(=O)N[C@@H](CCC(N)=O)C(=O)N[C@@H](CCCCNC(=O)c4ccc(CN5CCOCC5)cc4)C(N)=O)(C3)NC(=O)[C@H](CC(N)=O)NC(=O)[C@H](Cc3ccccc3)NC(=O)[C@H](C)NC(=O)[C@H](C)NC(=O)[C@H](CC(=O)O)NC(=O)[C@H](CC(=O)O)NC1=O)NC(=O)[C@H](CC(C)(C)C)NC(=O)[C@H](CC(=O)O)NC2=O (stereo partly drawn) [I-909, Ac-PL3-Asp-Npg-B5-Asp-Asp-Ala-Ala-Phe-Asn-PyrS2-3Thi-BztA-Gln-[MeMorphBz]Lys-NH2]
IC50 [1]: 8 nM
Solubility ([2]; Solubility (uM)): 44 µM (≈ 99 µg/mL)
IC50 ([3]; read-out: NanoBRET Abs IC50): 28400 nM
chromatographic logD ([4]; pH 7.4, CHI Log D): 1.93

CC(=O)N1CCC[C@]12CC=CCCCC1(CCCC=CCCCOC(=O)N3CC[C@@](C(=O)N[C@@H](Cc4ccsc4)C(=O)N[C@@H](Cc4csc5ccccc45)C(=O)N[C@@H](CCC(N)=O)C(=O)N[C@@H](CCCCNC(=O)c4ccc(CN(C)C)cc4)C(N)=O)(C3)NC(=O)[C@H](CC(N)=O)NC(=O)[C@H](Cc3ccccc3)NC(=O)[C@H](C)NC(=O)[C@H](C)NC(=O)[C@H](CC(=O)O)NC(=O)[C@H](CC(=O)O)NC1=O)NC(=O)[C@H](CC(C)(C)C)NC(=O)[C@H](CC(=O)O)NC2=O (stereo partly drawn) [I-910, Ac-PL3-Asp-Npg-B5-Asp-Asp-Ala-Ala-Phe-Asn-PyrS2-3Thi-BztA-Gln-[Me2NCBz]Lys-NH2]
IC50 [1]: 10 nM
Solubility ([2]; Solubility (uM)): 40 µM (≈ 88.3 µg/mL)
IC50 ([3]; read-out: NanoBRET Abs IC50): 29800 nM
chromatographic logD ([4]; pH 7.4, CHI Log D): 1.84

COCCOCCOCCOCCOCCOCCC(=O)NCCCC[C@H](NC(=O)[C@H](CCC(N)=O)NC(=O)[C@H](Cc1csc2ccccc12)NC(=O)[C@H](Cc1ccsc1)NC(=O)[C@]12CCN(C1)C(=O)OCCCC=CCCCC1(CCCC=CC[C@]3(CCCN3C(C)=O)C(=O)N[C@@H](CC(=O)O)C(=O)N[C@@H](CC(C)(C)C)C(=O)N1)C(=O)N[C@@H](CC(=O)O)C(=O)N[C@@H](CC(=O)O)C(=O)N[C@@H](C)C(=O)N[C@@H](C)C(=O)N[C@@H](Cc1ccccc1)C(=O)N[C@@H](CC(N)=O)C(=O)N2)C(N)=O (stereo partly drawn) [I-913, Ac-PL3-Asp-Npg-B5-Asp-Asp-Ala-Ala-Phe-Asn-PyrS2-3Thi-BztA-Gln-[mPEG6]Lys-NH2]
IC50 [1]: 10 nM
Solubility ([2]; Solubility (uM)): 49 µM (≈ 115 µg/mL)
IC50 ([3]; read-out: NanoBRET Abs IC50): 26400 nM
chromatographic logD ([4]; pH 7.4, CHI Log D): 1.82
